# Data reported in PubChem BioAssay (NCI).
#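 Cells were grown in 96-well plates and exposed to each compound for 48 hours at five concentrations; endpoints were interpolated linearly between bracketing concentrations, or set to the highest concentration if not reached. The concentration for 50% growth inhibition is given as GI50. TGI: total growth inhibition.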
# How the values were obtained:
# Experiment in all cases: NCI anticancer screen, dose series, 48 h
# 786-0 renal = tested on: 786-0 renal
# A549 NSCLC = tested on: A549 NSCLC
# ACHN renal = tested on: ACHN renal
# BT-549 breast = tested on: BT-549 breast
# CAKI-1 renal = tested on: CAKI-1 renal
# DU-145 prostate = tested on: DU-145 prostate
# EKVX NSCLC = tested on: EKVX NSCLC
# HCT-116 colon = tested on: HCT-116 colon
# HCT-15 colon = tested on: HCT-15 colon
# HL-60(TB) leukemia = tested on: HL-60(TB) leukemia
# HOP-62 NSCLC = tested on: HOP-62 NSCLC
# HOP-92 NSCLC = tested on: HOP-92 NSCLC
# HS 578T breast = tested on: HS 578T breast
# HT29 colon = tested on: HT29 colon
# IGROV1 ovarian = tested on: IGROV1 ovarian
# K-562 leukemia = tested on: K-562 leukemia
# KM12 colon = tested on: KM12 colon
# LOX IMVI melanoma = tested on: LOX IMVI melanoma
# M14 melanoma = tested on: M14 melanoma
# MALME-3M melanoma = tested on: MALME-3M melanoma
# MCF7 breast = tested on: MCF7 breast
# MDA-MB-231 breast = tested on: MDA-MB-231 breast
# MDA-MB-435 = tested on: MDA-MB-435
# MOLT-4 leukemia = tested on: MOLT-4 leukemia
# NCI-H226 lung = tested on: NCI-H226 lung
# NCI-H23 lung = tested on: NCI-H23 lung
# NCI-H460 lung = tested on: NCI-H460 lung
# NCI-H522 lung = tested on: NCI-H522 lung
# NCI/ADR-RES ovarian = tested on: NCI/ADR-RES ovarian
# OVCAR-3 ovarian = tested on: OVCAR-3 ovarian
# OVCAR-4 ovarian = tested on: OVCAR-4 ovarian
# OVCAR-5 ovarian = tested on: OVCAR-5 ovarian
# OVCAR-8 ovarian = tested on: OVCAR-8 ovarian
# PC-3 prostate = tested on: PC-3 prostate
# RXF 393 renal = tested on: RXF 393 renal
# SF-268 CNS = tested on: SF-268 CNS
# SF-295 CNS = tested on: SF-295 CNS
# SF-539 CNS = tested on: SF-539 CNS
# SK-MEL-2 melanoma = tested on: SK-MEL-2 melanoma
# SK-MEL-28 melanoma = tested on: SK-MEL-28 melanoma
# SK-MEL-5 melanoma = tested on: SK-MEL-5 melanoma
# SK-OV-3 ovarian = tested on: SK-OV-3 ovarian
# SN12C renal = tested on: SN12C renal
# SNB-19 CNS = tested on: SNB-19 CNS
# SNB-75 CNS = tested on: SNB-75 CNS
# SR leukemia = tested on: SR leukemia
# SW-620 colon = tested on: SW-620 colon
# T-47D breast = tested on: T-47D breast
# TK-10 renal = tested on: TK-10 renal
# U251 CNS = tested on: U251 CNS
# UACC-257 melanoma = tested on: UACC-257 melanoma
# UACC-62 melanoma = tested on: UACC-62 melanoma
# UO-31 renal = tested on: UO-31 renal
# A498 renal = tested on: A498 renal
# CCRF-CEM leukemia = tested on: CCRF-CEM leukemia
# COLO 205 colon = tested on: COLO 205 colon
# RPMI-8226 leukemia = tested on: RPMI-8226 leukemia
compound,measurement,setting,value
COc1ccc2c(c1)n([O-])c1cc(C#N)ccc1[n+]2=O,TGI,786-0 renal,30.8 µM
same,TGI,A549 NSCLC,10.9 µM
same,TGI,ACHN renal,12.4 µM
same,TGI,BT-549 breast,51.6 µM
same,TGI,CAKI-1 renal,14.6 µM
same,TGI,DU-145 prostate,16.6 µM
same,TGI,EKVX NSCLC,79.1 µM
same,TGI,HCT-116 colon,24 µM
same,TGI,HCT-15 colon,4.82 µM
same,TGI,HL-60(TB) leukemia,71.6 µM
same,TGI,HOP-62 NSCLC,15.6 µM
same,TGI,HOP-92 NSCLC,28.6 µM
same,TGI,HS 578T breast,18.6 µM
same,TGI,HT29 colon,10.1 µM
same,TGI,IGROV1 ovarian,26.8 µM
same,TGI,K-562 leukemia,97.4 µM
same,TGI,KM12 colon,12.5 µM
same,TGI,LOX IMVI melanoma,17.6 µM
same,TGI,M14 melanoma,1.67 µM
same,TGI,MALME-3M melanoma,8.06 µM
same,TGI,MCF7 breast,> 100 µM
same,TGI,MDA-MB-231 breast,59.5 µM
same,TGI,MDA-MB-435,6.12 µM
same,TGI,MOLT-4 leukemia,1.38 µM
same,TGI,NCI-H226 lung,21.7 µM
same,TGI,NCI-H23 lung,4.79 µM
same,TGI,NCI-H460 lung,> 100 µM
same,TGI,NCI-H522 lung,27.7 µM
same,TGI,NCI/ADR-RES ovarian,62.9 µM
same,TGI,OVCAR-3 ovarian,26.1 µM
same,TGI,OVCAR-4 ovarian,91 µM
same,TGI,OVCAR-5 ovarian,35.9 µM
same,TGI,OVCAR-8 ovarian,> 100 µM
same,TGI,PC-3 prostate,21.7 µM
same,TGI,RXF 393 renal,> 100 µM
same,TGI,SF-268 CNS,81.3 µM
same,TGI,SF-295 CNS,3.77 µM
same,TGI,SF-539 CNS,16.2 µM
same,TGI,SK-MEL-2 melanoma,19.2 µM
same,TGI,SK-MEL-28 melanoma,40.2 µM
same,TGI,SK-MEL-5 melanoma,2.6 µM
same,TGI,SK-OV-3 ovarian,43.1 µM
same,TGI,SN12C renal,20.6 µM
same,TGI,SNB-19 CNS,> 100 µM
same,TGI,SNB-75 CNS,20.3 µM
same,TGI,SR leukemia,18.9 µM
same,TGI,SW-620 colon,56.3 µM
same,TGI,T-47D breast,48.6 µM
same,TGI,TK-10 renal,10.8 µM
same,TGI,U251 CNS,16.7 µM
same,TGI,UACC-257 melanoma,19.4 µM
same,TGI,UACC-62 melanoma,11 µM
same,TGI,UO-31 renal,23.1 µM
CC1=C(C(=O)Nc2ccc(F)c(Cl)c2)C(c2cccc(Cl)c2)NC(=S)N1 (stereo not drawn),GI50,786-0 renal,1.85 µM
same,TGI,786-0 renal,8.4 µM
same,GI50,A498 renal,7.3 µM
same,TGI,A498 renal,15.7 µM
same,GI50,A549 NSCLC,12.7 µM
same,TGI,A549 NSCLC,41.9 µM
same,GI50,ACHN renal,3.61 µM
same,TGI,ACHN renal,14.4 µM
same,GI50,BT-549 breast,10.4 µM
same,TGI,BT-549 breast,28.1 µM
same,GI50,CAKI-1 renal,> 50 µM
same,TGI,CAKI-1 renal,> 50 µM
same,GI50,CCRF-CEM leukemia,36.7 µM
same,TGI,CCRF-CEM leukemia,> 50 µM
same,GI50,COLO 205 colon,4.22 µM
same,TGI,COLO 205 colon,> 50 µM
same,GI50,DU-145 prostate,17.3 µM
same,TGI,DU-145 prostate,> 50 µM
same,GI50,EKVX NSCLC,14.6 µM
same,TGI,EKVX NSCLC,38.6 µM
same,GI50,HCT-116 colon,2.3 µM
same,TGI,HCT-116 colon,11.3 µM
same,GI50,HCT-15 colon,10.2 µM
same,TGI,HCT-15 colon,> 50 µM
same,GI50,HL-60(TB) leukemia,16.3 µM
same,TGI,HL-60(TB) leukemia,> 50 µM
same,GI50,HOP-62 NSCLC,7.83 µM
same,TGI,HOP-62 NSCLC,18.9 µM
same,GI50,HOP-92 NSCLC,32.1 µM
same,TGI,HOP-92 NSCLC,> 50 µM
same,GI50,HS 578T breast,26.4 µM
same,TGI,HS 578T breast,> 50 µM
same,GI50,IGROV1 ovarian,10.3 µM
same,TGI,IGROV1 ovarian,39.2 µM
same,GI50,K-562 leukemia,13.6 µM
same,TGI,K-562 leukemia,28.8 µM
same,GI50,KM12 colon,1.34 µM
same,TGI,KM12 colon,12.6 µM
same,GI50,LOX IMVI melanoma,1.44 µM
same,TGI,LOX IMVI melanoma,6.76 µM
same,GI50,M14 melanoma,9.02 µM
same,TGI,M14 melanoma,23.4 µM
same,GI50,MCF7 breast,47.6 µM
same,TGI,MCF7 breast,> 50 µM
same,GI50,MDA-MB-231 breast,7.36 µM
same,TGI,MDA-MB-231 breast,17.4 µM
same,GI50,MDA-MB-435,11.1 µM
same,TGI,MDA-MB-435,32.4 µM
same,GI50,MOLT-4 leukemia,45.1 µM
same,TGI,MOLT-4 leukemia,> 50 µM
same,GI50,NCI-H460 lung,23.9 µM
same,TGI,NCI-H460 lung,> 50 µM
same,GI50,NCI-H522 lung,2.13 µM
same,TGI,NCI-H522 lung,17.3 µM
same,GI50,OVCAR-3 ovarian,13.9 µM
same,TGI,OVCAR-3 ovarian,33.6 µM
same,GI50,OVCAR-8 ovarian,17.1 µM
same,TGI,OVCAR-8 ovarian,> 50 µM
same,GI50,PC-3 prostate,16.1 µM
same,TGI,PC-3 prostate,> 50 µM
same,GI50,RPMI-8226 leukemia,15.3 µM
same,TGI,RPMI-8226 leukemia,> 50 µM
same,GI50,RXF 393 renal,1.1 µM
same,TGI,RXF 393 renal,3.24 µM
same,GI50,SF-268 CNS,10.1 µM
same,TGI,SF-268 CNS,25.9 µM
same,GI50,SF-295 CNS,6.28 µM
same,TGI,SF-295 CNS,> 50 µM
same,GI50,SF-539 CNS,> 50 µM
same,TGI,SF-539 CNS,> 50 µM
same,GI50,SK-MEL-2 melanoma,8.4 µM
same,TGI,SK-MEL-2 melanoma,20.5 µM
same,GI50,SK-MEL-28 melanoma,10.2 µM
same,TGI,SK-MEL-28 melanoma,28 µM
same,GI50,SK-MEL-5 melanoma,10 µM
same,TGI,SK-MEL-5 melanoma,20.2 µM
same,GI50,SK-OV-3 ovarian,5.26 µM
same,TGI,SK-OV-3 ovarian,26.6 µM
same,GI50,SN12C renal,0.00746 µM
same,TGI,SN12C renal,2.51 µM
same,GI50,SNB-19 CNS,26.7 µM
same,TGI,SNB-19 CNS,> 50 µM
same,GI50,SNB-75 CNS,6.36 µM
same,TGI,SNB-75 CNS,21 µM
same,GI50,SR leukemia,15.4 µM
same,TGI,SR leukemia,47.8 µM
same,GI50,SW-620 colon,> 50 µM
same,TGI,SW-620 colon,> 50 µM
same,GI50,T-47D breast,42.5 µM
same,TGI,T-47D breast,> 50 µM
same,GI50,TK-10 renal,9.01 µM
same,TGI,TK-10 renal,45.5 µM
same,GI50,U251 CNS,6.84 µM
same,TGI,U251 CNS,18.8 µM
same,GI50,UACC-257 melanoma,10.1 µM
same,TGI,UACC-257 melanoma,23.5 µM
same,GI50,UACC-62 melanoma,3.93 µM
same,TGI,UACC-62 melanoma,12.5 µM
same,GI50,UO-31 renal,3.67 µM
same,TGI,UO-31 renal,14.6 µM
